Source: patent US20240018145A1, “[…]-DEPENDENT EN[…] TREATING OR […]” (priority 2020, published 2024)

test system: FLU A (PR/8/34); test: Flu A Neuraminidase Antiviral Assay; assay type: cell-based; details: not given

**Q.** Which EC50 does the source give for `COc1c2n(ccc1=O)N1C(c3ccccc3)C(SC(C)C)CCC1N(C)C2=O` (stereo not drawn) [Compound 146A, 2-(isopropylthio)-7-methoxy-5-methyl-1-phenyl-1,2,3,4,4a,5-hexahydrodipyrido[1,2-b:2′,1′-f][1,2,4]triazine-6,8-dione] here?
**A.** 18.7 nM

**Q.** For `COc1c2n(ccc1=O)N1C(c3ccccc3)C(SC(C)C)CCC1N(C)C2=O` (stereo not drawn) [Compound 146B, 2-(isopropylthio)-7-methoxy-5-methyl-1-phenyl-1,2,3,4,4a,5-hexahydrodipyrido[1,2-b:2′,1′-f][1,2,4]triazine-6,8-dione], which EC50 is on record?
**A.** 237 nM

**Q.** How did the EC50 turn out when `CCOC1CCC2N(C)C(=O)c3c(O)c(=O)ccn3N2C1c1ccccc1` (stereo not drawn) [Compound 152A, 2-ethoxy-7-hydroxy-5-methyl-1-phenyl-1,2,3,4,4a,5-hexahydrodipyrido[1,2-b:2′,1′-f][1,2,4]triazine-6,8-dione] was run?
**A.** 4300 nM

**Q.** With `CCOC1CCC2N(C)C(=O)c3c(O)c(=O)ccn3N2C1c1ccccc1` (stereo not drawn) [Compound 152B, 2-ethoxy-7-hydroxy-5-methyl-1-phenyl-1,2,3,4,4a,5-hexahydrodipyrido[1,2-b:2′,1′-f][1,2,4]triazine-6,8-dione] as the molecule, how does the EC50 read?
**A.** 36.1 nM

same assay, conditions: MDCK, 48 h

**Q.** `CC(=O)N(C)[C@H]1CC[C@@H](c2ccccc2)N2[C@@H]1N(C)C(=O)c1c(O)c(=O)ccn12` [Compound 145, N-((1S,4S,4aS)-7-hydroxy-5-methyl-6,8-dioxo-1-phenyl-1,2,3,4,4a,5,6,8-octahydrodipyrido[1,2-b:2′,1′-f][1,2,4]triazin-4-yl)-N-methylacetamide] was tested. Which EC50 did it give?
**A.** > 810 nM

**Q.** Which EC50 does the source give for `CS[C@H]1CC[C@@H](c2ccccc2)N2[C@@H]1N(C)C(=O)c1c(O)c(=O)ccn12` [Compound 147, (1S,4S,4aS)-7-hydroxy-5-methyl-4-(methylthio)-1-phenyl-1,2,3,4,4a,5-hexahydrodipyrido[1,2-b:2′,1′-f][1,2,4]triazine-6,8-dione] here?
**A.** 16.8 nM

**Q.** How did the EC50 turn out when `CN1C(=O)c2c(O)c(=O)ccn2N2C1CCC1OCc3ccccc3C12C` (stereo not drawn) [Compound 148, 7-hydroxy-5,12a-dimethyl-2a,3,4,4a,5,12a-hexahydro-1H-isochromeno[3′,4′:5,6]pyrido[1,2-b]pyrido[2,1-f][1,2,4]triazine-6,8-dione] was run?
**A.** 38 nM

**Q.** With `CN1C(=O)c2c(O)c(=O)ccn2N2C1/C(=C/c1ccccc1)C[C@@H](O)[C@@]2(C)c1ccccc1` (stereo partly drawn) [Compound 149, (1R,2R)-4-((E)-benzylidene)-2,7-dihydroxy-1,5-dimethyl-1-phenyl-1,2,3,4,4a,5-hexahydrodipyrido[1,2-b:2′,1′-f][1,2,4]triazine-6,8-dione] as the molecule, how does the EC50 read?
**A.** > 810 nM

**Q.** How did the EC50 turn out when `CN1C(=O)c2c(O)c(=O)ccn2N2C1CC[C@H]1CCc3ccccc3[C@H]12` (stereo partly drawn) [Compound 150, Cis-16-hydroxy-2-methyl-2,2a,3,4,4a,5,6,10b-octahydrobenzo[h]pyrido[1′,2′:1,6][1,2,4]triazino[2,3-a]quinoline-1,15-dione] was run?
**A.** 69.6 nM

**Q.** How did the EC50 turn out when `CN1C(=O)c2c(O)c(=O)ccn2N2C1CC[C@H](OCC=C(F)F)[C@@]2(C)c1ccccc1` (stereo partly drawn) [Compound 151] was run?
**A.** > 810 nM

**Q.** Which EC50 does the source give for `CN1C(=O)c2c(O)c(=O)ccn2N2[C@H](c3ccccc3)[C@@H](OCCCCC#N)CC[C@@H]12` [Compound 154, 5-(((1R,2S,4aS)-7-hydroxy-5-methyl-6,8-dioxo-1-phenyl-1,2,3,4,4a,5,6,8-octahydrodipyrido[1,2-b:2′,1′-f][1,2,4]triazin-2-yl)oxy)pentanenitrile] here?
**A.** > 810 nM

**Q.** Which EC50 does the source give for `CC(C)O[C@H]1CC[C@H]2N(C)C(=O)c3c(O)c(=O)ccn3N2[C@@H]1c1ccccc1` [Compound 155, (1R,2S,4aS)-7-hydroxy-2-isopropoxy-5-methyl-1-phenyl-1,2,3,4,4a,5-hexahydrodipyrido[1,2-b:2′,1′-f][1,2,4]triazine-6,8-dione] here?
**A.** 185 nM

**Q.** With `CC(C)O[C@@H]1CC[C@H]2N(C)C(=O)c3c(O)c(=O)ccn3N2[C@@H]1c1ccccc1` [Compound 156, (1R,2R,4aS)-7-hydroxy-2-isopropoxy-5-methyl-1-phenyl-1,2,3,4,4a,5-hexahydrodipyrido[1,2-b:2′,1′-f][1,2,4]triazine-6,8-dione] as the molecule, how does the EC50 read?
**A.** 38 nM

**Q.** Which EC50 does the source give for `CN1C(=O)c2c(O)c(=O)ccn2N2[C@H](c3ccccc3)[C@H](OCc3ccc(F)c(F)c3)CC[C@@H]12` [Compound 157, (1R,2R,4aS)-2-((3,4-difluorobenzyl)oxy)-7-hydroxy-5-methyl-1-phenyl-1,2,3,4,4a,5-hexahydrodipyrido[1,2-b:2′,1′-f][1,2,4]triazine-6,8-dione] here?
**A.** 336 nM

**Q.** Which EC50 does the source give for `CN1C(=O)c2c(O)c(=O)ccn2N2[C@H](c3ccccc3)[C@H](OCC3CCCC3)CC[C@@H]12` [Compound 158, (1R,2R,4aS)-2-(cyclopentylmethoxy)-7-hydroxy-5-methyl-1-phenyl-1,2,3,4,4a,5-hexahydrodipyrido[1,2-b:2′,1′-f][1,2,4]triazine-6,8-dione] here?
**A.** 102 nM

**Q.** With `CN1C(=O)c2c(O)c(=O)ccn2N2[C@H](c3ccccc3)[C@H](OCC3(C#N)CCC3)CC[C@@H]12` [Compound 159, 1-((((1R,2R,4aS)-7-hydroxy-5-methyl-6,8-dioxo-1-phenyl-1,2,3,4,4a,5,6,8-octahydrodipyrido[1,2-b:2′,1′-f][1,2,4]triazin-2-yl)oxy)methyl)cyclobutane-1-carbonitrile] as the molecule, how does the EC50 read?
**A.** 210 nM

**Q.** For `CN1C(=O)c2c(O)c(=O)ccn2N2[C@H](c3ccccc3)[C@H](OCC3CCC3)CC[C@@H]12` [Compound 160, (1R,2R,4aS)-2-(cyclobutylmethoxy)-7-hydroxy-5-methyl-1-phenyl-1,2,3,4,4a,5-hexahydrodipyrido[1,2-b:2′,1′-f][1,2,4]triazine-6,8-dione], which EC50 is on record?
**A.** 18.1 nM

**Q.** With `CC(C)CCO[C@@H]1CC[C@H]2N(C)C(=O)c3c(O)c(=O)ccn3N2[C@@H]1c1ccccc1` [Compound 161, (1R,2R,4aS)-7-hydroxy-2-(isopentyloxy)-5-methyl-1-phenyl-1,2,3,4,4a,5-hexahydrodipyrido[1,2-b:2′,1′-f][1,2,4]triazine-6,8-dione] as the molecule, how does the EC50 read?
**A.** 120 nM

**Q.** How did the EC50 turn out when `CN1C(=O)c2c(O)c(=O)ccn2N2[C@H](c3ccccc3)[C@H](OCCF)CC[C@@H]12` [Compound 162, (1R,2R,4aS)-2-(2-fluoroethoxy)-7-hydroxy-5-methyl-1-phenyl-1,2,3,4,4a,5-hexahydrodipyrido[1,2-b:2′,1′-f][1,2,4]triazine-6,8-dione] was run?
**A.** 195 nM

**Q.** Which EC50 does the source give for `COCCCO[C@@H]1CC[C@H]2N(C)C(=O)c3c(O)c(=O)ccn3N2[C@@H]1c1ccccc1` [Compound 163, (1R,2R,4aS)-7-hydroxy-2-(3-methoxypropoxy)-5-methyl-1-phenyl-1,2,3,4,4a,5-hexahydrodipyrido[1,2-b:2′,1′-f][1,2,4]triazine-6,8-dione] here?
**A.** 270 nM

**Q.** `COC1(c2ccccc2)CCCC2C1n1ccc(=O)c(O)c1C(=O)N2C` (stereo not drawn) [Compound 167, 7-hydroxy-1-methoxy-5-methyl-1-phenyl-1,3,4,4a,5,11a-hexahydro-2H-pyrido[1,2-a]quinoxaline-6,8-dione] was tested. Which EC50 did it give?
**A.** 109 nM
